# Results reported in patent publication US8889591B2, “Herbicidal compositions comprising 4-amino-3-chloro-5-fluoro-6-(4-chloro-2-fluoro-3-methoxyphenyl)pyridine-2-carboxylic acid or a derivative thereof and bromobutide, daimuron, oxaziclomefone or pyributicarb” (Dow Agrosciences LLC, priority 2012, dated 2014).
# Assays:
# BRAPP = experiment: Postemergence foliar-applied greenhouse weed control, direct-seeded rice system; format: in vivo
# Source text: (§1) Seeds or nutlets of the desired test plant species were planted in a soil matrix prepared by mixing a loam or sandy loam soil (e.g., 28.6 percent silt, 18.8 percent clay, and 52.6 percent sand, with a pH of about 5.8 and an organic matter content of about 1.8 percent) and calcareous grit in an 80 to 20 ratio. The soil matrix was contained in plastic pots with a volume of 1 quart and a surface area of 83.6 square centimeters (cm^2). When required to ensure good germination and healthy plants, a fungicide treatment and/or other chemical or physical treatment was applied. The plants were grown for 8-22 days in a greenhouse with an approximate 14 h photoperiod which was maintained at about 29° C. during the day and 26° C. during the night. Nutrients (Peters Excel® 15-5-15 5-Ca 2-Mg and iron chelate) were applied in the irrigation solution as needed and water was added on a regular basis. Supplemental lighting was provided with overhead metal halide 1000-Watt lamps as necessary. The plants were employed for testing when they reached the first through fourth true leaf stage.
# (§2) Treatments consisted of the acid or esters of 4-amino-3-chloro-5-fluoro-6-(4-chloro-2-fluoro-3-methoxy-phenyl)pyridine-2-carboxylic acid (Compound A), each formulated as an SC (suspension concentrate), and various herbicidal components alone and in combination. Forms of compound A were applied on an acid equivalent basis.
# (§3) Other herbicidal components were applied on an active ingredient basis and included diamuron formulated as an EC (emulsifiable concentrate) and oxaziclomefone (technical grade material).
# (§4) Treatment requirements were calculated based upon the rates being tested, the concentration of active ingredient or acid equivalent in the formulation, and a 12 mL application volume at a rate of 187 L/ha.
# (§5) For treatments comprised of formulated compounds, measured amounts of compounds were placed individually in 25 mL glass vials and diluted in a volume of 1.25% (v/v) Agri-Dex® crop oil concentrated to obtain 12× stock solutions. […] Application solutions were prepared by adding an appropriate amount of each stock solution (e.g., 1 mL) and diluted to the appropriate final concentrations with the addition of 10 mL of an aqueous mixture of 1.25% (v/v) crop oil concentrate so that the final spray solutions contained 1.25+/−0.05% (v/v) crop oil concentrate.
# (§6) For treatments comprised of technical compounds, weighed amounts can be placed individually in 25 mL glass vials and dissolved in a volume of 97:3 v/v acetone/DMSO to obtain 12× stock solutions. […] Application solutions can be prepared by adding an appropriate amount of each stock solution (e.g., 1 mL) and diluted to the appropriate final concentrations with the addition of 10 mL of an aqueous mixture of 1.5% (v/v) crop oil concentrate so that the final spray solutions contain 1.25% (v/v) crop oil concentrate. When technical materials are used, the concentrated stock solutions can be added to the spray solutions so that the final acetone and DMSO concentrations of the application solutions are 16.2% and 0.5%, respectively.
# (§7) For treatments comprised of formulated and technical compounds, weighed amounts of the technical materials were placed individually in 25 mL glass vials and dissolved in a volume of 97:3 v/v acetone/DMSO to obtain 12× stock solutions, and measured amounts of the formulated compounds were placed individually in 25 mL glass vials and diluted in a volume of 1.5% (v/v) crop oil concentrate or water to obtain 12× stock solutions. […] Application solutions were prepared by adding an appropriate amount of each stock solution (e.g., 1 mL) and diluted to the appropriate final concentrations with the addition of an appropriate amount of an aqueous mixture of 1.5% (v/v) crop oil concentrate so that the final spray solutions contained 1.25% (v/v) crop oil concentrate. […]
# ECHCG [1] = experiment: as above; format: in vivo, Echinochloa crusgalli (L.) Beauv.
# Source text: as §1, §2, §3, §4, §5, §6, §7
# ECHCO = experiment: as above; format: in vivo, Echinochloa colona (L.) Link
# Source text: as §1, §2, §3, §4, §5, §6, §7
# LEFCH = experiment: as above; format: in vivo, Leptochloa chinensis (L.) Nees
# Source text: as §1, §2, §3, §4, §5, §6, §7
# IPOHE = experiment: as above; format: in vivo, Ipomoea hederacea Jacq.
# Source text: as §1, §2, §3, §4, §5, §6, §7
# ECHOR = experiment: In-water applied greenhouse weed control, transplanted paddy rice system; format: in vivo, Echinochloa oryzoides (Ard.) Fritsch; settings: in-water application
# Method: (§8) Weed seeds or nutlets of the desired test plant species were planted in puddled soil (mud) prepared by mixing a shredded, non-sterilized mineral soil (50.5 percent silt, 25.5 percent clay, and 24 percent sand, with a pH of about 7.6 and an organic matter content of about 2.9 percent) and water at a 1:1 volumetric ratio. The prepared mud was dispensed in 365 mL aliquots into 16-ounce (oz.) non-perforated plastic pots with a surface area of 86.59 square centimeters (cm^2) leaving a headspace of 3 centimeters (cm) in each pot. Mud was allowed to dry overnight prior to planting or transplanting. Rice seeds were planted in Sun Gro MetroMix® 306 planting mixture, which typically has a pH of 6.0 to 6.8 and an organic matter content of about 30 percent, in plastic plug trays. Seedlings at the second or third leaf stage of growth were transplanted into 840 mL of mud contained in 32-oz. non-perforated plastic pots with a surface area of 86.59 cm^2 4 days prior to herbicide application. The paddy was created by filling the headspace of the pots with 2.5 to 3 cm of water. When required to ensure good germination and healthy plants, a fungicide treatment and/or other chemical or physical treatment was applied. The plants were grown for 4-22 days in a greenhouse with an approximate 14 h photoperiod which was maintained at about 29° C. during the day and 26° C. during the night. Nutrients were added as Osmocote® (19:6:12, N:P:K+ minor nutrients) at 2 g per 16-oz. pot and 4 g per 32-oz. pot. Water was added on a regular basis to maintain the paddy flood, and supplemental lighting was provided with overhead metal halide 1000-Watt lamps as necessary. The plants were employed for testing when they reached the first through fourth true leaf stage.
# (§9) Treatments consisted of the acid or esters of 4-amino-3-chloro-5-fluoro-6-(4-chloro-2-fluoro-3-methoxy-phenyl)pyridine-2-carboxylic acid (compound A) each formulated as an SC and various herbicidal components alone and in combination. Forms of compound A were applied on an acid equivalent basis.
# (§10) Other herbicidal components were applied on an active ingredient basis and included daimuron formulated as an EC, bromobutide (technical grade material), and oxaziclomefone (technical grade material).
# (§11) Treatment requirements for each compound or herbicidal component were calculated based upon the rates being tested, the concentration of active ingredient or acid equivalent in the formulation, an application volume of 2 mL per component per pot, and an application area of 86.59 cm^2 per pot.
# (§12) For formulated compounds, a measured amount was placed in an individual 100 or 200 mL glass vial and was dissolved in a volume of 1.25% (v/v) Agri-Dex® crop oil concentrate to obtain application solutions.
# (§13) For technical grade compounds, a weighed amount was placed in an individual 100 to 200 mL glass vial and was dissolved in a volume of acetone to obtain concentrated stock solutions. […] The concentrated stock solutions obtained were diluted with an equivalent volume of an aqueous mixture containing 2.5% (v/v) crop oil concentrate so that the final application solutions contained 1.25% (v/v) crop oil concentrate.
# (§14) Applications were made by injecting, with a pipetter, appropriate amounts of the application solutions, individually and sequentially, into the aqueous layer of the paddy. Control plants were treated in the same manner with the solvent blank. Applications were made so that all treated plant material received the same concentrations of acetone and crop oil concentrate.
# (§15) The treated plants and control plants were placed in a greenhouse as described above and water was added as needed to maintain a paddy flood. After approximately 3 weeks the condition of the test plants as compared with that of the untreated plants was determined visually and scored on a scale of 0 to 100 percent where 0 corresponds to no injury or growth inhibition and 100 corresponds to complete kill. […]
# FIMMI = experiment: as above; format: in vivo, Fimbristylis miliacea (L.) Vahl; settings: in-water application
# Method: as §8, §9, §10, §11, §12, §13, §14, §15
# CYPIR = experiment: Postemergence foliar-applied greenhouse weed control, direct-seeded rice system; format: in vivo, Cyperus iria L.; settings: Oxaziclomefone 6.25 gai/ha alone
# Source text: as §1, with “stage. […]” for “stage.”
# as §4
# (§16) For treatments comprised of formulated compounds, measured amounts of compounds were placed individually in 25 mL glass vials and diluted in a volume of 1.25% (v/v) Agri-Dex® crop oil concentrated to obtain 12× stock solutions. […]
# (§17) For treatments comprised of formulated and technical compounds, weighed amounts of the technical materials were placed individually in 25 mL glass vials and dissolved in a volume of 97:3 v/v acetone/DMSO to obtain 12× stock solutions, and measured amounts of the formulated compounds were placed individually in 25 mL glass vials and diluted in a volume of 1.5% (v/v) crop oil concentrate or water to obtain 12× stock solutions. […]
# SCPJU = experiment: as above; format: in vivo, Schoenoplectus juncoides (Roxb.) Palla; settings: Oxaziclomefone 6.25 gai/ha alone
# Source text: as §1, with “stage. […]” for “stage.”
# as §4, §16, §17
# CYPRO = experiment: In-water applied greenhouse weed control, transplanted paddy rice system; format: in vivo, Cyperus rotundus L.; settings: in-water application
# Method: as §8, §9, §10, §11, §12, §13, §14, §15
# ECHCG [2] = experiment: as above; format: in vivo, Echinochloa crusgalli (L.) Beauv.; settings: in-water application; Oxaziclomafone 20 gai/ha alone
# Method: Weed seeds or nutlets of the desired test plant species were planted in puddled soil (mud) prepared by mixing a shredded, non-sterilized mineral soil (50.5 percent silt, 25.5 percent clay, and 24 percent sand, with a pH of about 7.6 and an organic matter content of about 2.9 percent) and water at a 1:1 volumetric ratio. The prepared mud was dispensed in 365 mL aliquots into 16-ounce (oz.) non-perforated plastic pots with a surface area of 86.59 square centimeters (cm^2) leaving a headspace of 3 centimeters (cm) in each pot. Mud was allowed to dry overnight prior to planting or transplanting. Rice seeds were planted in Sun Gro MetroMix® 306 planting mixture, which typically has a pH of 6.0 to 6.8 and an organic matter content of about 30 percent, in plastic plug trays. Seedlings at the second or third leaf stage of growth were transplanted into 840 mL of mud contained in 32-oz. non-perforated plastic pots with a surface area of 86.59 cm^2 4 days prior to herbicide application. The paddy was created by filling the headspace of the pots with 2.5 to 3 cm of water. […]
# as §11
# For formulated compounds, a measured amount was placed in an individual 100 or 200 mL glass vial and was dissolved in a volume of 1.25% (v/v) Agri-Dex® crop oil concentrate to obtain application solutions. […]
# as §15
# [3] = Daimuron 100 gai/ha alone (Table 2)
# [4] = Daimuron 200 gai/ha alone (Table 2)
# [5] = Daimuron 400 gai/ha alone (Table 2)
smiles,measurement,setting,value
"Cc1ccc(NC(=O)NC(C)(C)c2ccccc2)cc1 [Daimuron, N-(4-methylphenyl)-N′-(1-methyl-1-phenylethyl)urea]",Visual Weed Control (%) - 20 DAA BRAPP Obs,BRAPP; Daimuron 100 gai/ha alone,0%
same,Visual Weed Control (%) - 20 DAA BRAPP Obs,BRAPP; [3],0%
same,Visual Weed Control (%) - 20 DAA BRAPP Obs,BRAPP; Daimuron 200 gai/ha alone,0%
same,Visual Weed Control (%) - 20 DAA BRAPP Obs,BRAPP; [4],0%
same,Visual Weed Control (%) - 20 DAA BRAPP Obs,BRAPP; Daimuron 400 gai/ha alone,0%
same,Visual Weed Control (%) - 20 DAA BRAPP Obs,BRAPP; [5],0%
same,Visual Weed Control (%) - 20 DAA ECHCG Obs,ECHCG [1]; Daimuron 100 gai/ha alone,0%
same,Visual Weed Control (%) - 20 DAA ECHCG Obs,ECHCG [1]; [3],0%
same,Visual Weed Control (%) - 20 DAA ECHCG Obs,ECHCG [1]; Daimuron 200 gai/ha alone,0%
same,Visual Weed Control (%) - 20 DAA ECHCG Obs,ECHCG [1]; [4],0%
same,Visual Weed Control (%) - 20 DAA ECHCG Obs,ECHCG [1]; Daimuron 400 gai/ha alone,0%
same,Visual Weed Control (%) - 20 DAA ECHCG Obs,ECHCG [1]; [5],0%
same,Visual Weed Control (%) - 20 DAA ECHCO Obs,ECHCO; Daimuron 100 gai/ha alone,0%
same,Visual Weed Control (%) - 20 DAA ECHCO Obs,ECHCO; [3],0%
same,Visual Weed Control (%) - 20 DAA ECHCO Obs,ECHCO; Daimuron 200 gai/ha alone,10%
same,Visual Weed Control (%) - 20 DAA ECHCO Obs,ECHCO; [4],10%
same,Visual Weed Control (%) - 20 DAA ECHCO Obs,ECHCO; Daimuron 400 gai/ha alone,10%
same,Visual Weed Control (%) - 20 DAA ECHCO Obs,ECHCO; [5],10%
same,Visual Weed Control (%) - 20 DAA LEFCH Obs,LEFCH; Daimuron 100 gai/ha alone,0%
same,Visual Weed Control (%) - 20 DAA LEFCH Obs,LEFCH; Daimuron 200 gai/ha alone,0%
same,Visual Weed Control (%) - 20 DAA LEFCH Obs,LEFCH; [4],0%
same,Visual Weed Control (%) - 20 DAA LEFCH Obs,LEFCH; Daimuron 400 gai/ha alone,0%
same,Visual Weed Control (%) - 20 DAA LEFCH Obs,LEFCH; [5],0%
same,Visual Weed Control (%) - 20 DAA IPOHE Obs,IPOHE; Daimuron 100 gai/ha alone,0%
same,Visual Weed Control (%) - 20 DAA IPOHE Obs,IPOHE; [3],0%
same,Visual Weed Control (%) - 20 DAA IPOHE Obs,IPOHE; Daimuron 200 gai/ha alone,10%
same,Visual Weed Control (%) - 21 DAA ECHOR Obs,ECHOR; Daimuron 200 gai/ha alone,0%
same,Visual Weed Control (%) - 21 DAA ECHOR Obs,ECHOR; Daimuron 400 gai/ha alone,15%
same,Visual Weed Control (%) - 20 DAA ECHOR Obs,ECHOR; Diamuron 400 gai/ha alone,60%
same,Visual Weed Control (%) - 21 DAA FIMMI Obs,FIMMI; Daimuron 200 gai/ha alone,10%
same,Visual Weed Control (%) - 21 DAA FIMMI Obs,FIMMI; Daimuron 400 gai/ha alone,80%
"CC1=C(c2ccccc2)C(=O)N(C(C)(C)c2cc(Cl)cc(Cl)c2)CO1 [Oxaziclomefone, 3-[1-(3,5-dichlorophenyl)-1-methylethyl]-2,3-dihydro-6-methyl-5-phenyl-4H-1,3-oxazin-4-one]",Visual Weed Control (%) - 22 DAA CYPIR Obs,CYPIR,0%
same,Visual Weed Control (%) - 22 DAA SCPJU Obs,SCPJU,0%
same,Visual Weed Control (%) - 21 DAA CYPRO Obs,CYPRO; Oxaziclomafone 20 gai/ha alone (Table 6),0%
same,Visual Weed Control (%) - 21 DAA CYPRO Obs,CYPRO; Oxaziclomafone 20 gai/ha alone (Table 7),0%
same,Visual Weed Control (%) - 21 DAA CYPRO Obs,CYPRO; Oxaziclomafone 40 gai/ha alone (Table 7),0%
same,Visual Weed Control (%) - 21 DAA ECHCG Obs,ECHCG [2],80%
